{
  "source": "paper PMC4377863",
  "about": "“Salacinol and Related Analogs: New Leads for Type 2 Diabetes Therapeutic Candidates from the Thai Traditional Natural Medicine Salacia chinensis” (Nutrients, 2015)",
  "key": {"starch-loaded rats": {"test_system": "starch-loaded rats", "experiment": "Blood glucose levels in starch-loaded rats", "format": "in vivo, rat", "details": "for Blood Glucose 0 h: 0 h after starch; for Blood Glucose 0.5 h: 0.5 h after starch; for Blood Glucose 1.0 h: 1.0 h after starch; for Blood Glucose 2.0 h: 2.0 h after starch; for Blood Glucose 3.0 h: 3.0 h after starch", "description": "Five-week-old male SD rats were housed for one week in metal cages. After overnight fasting (20 h), the rats were orally administered a 5% (w/v) α-starch solution (1 g/kg) with or without a sample (SCE: 10–300 mg/kg, 1: 0.15–1.48 mg/kg, 3: 0.21–2.06 mg/kg, and 4: 0.07–0.68 mg/kg) using a stomach tube. At 0, 0.5, 1.0, 2.0, and 3.0 h after the administration of α-starch, blood samples were taken from the tail vein and immediately subjected to the measurement of blood glucose using the glucose oxidase method. As a baseline, distilled water was administrated to rats as a “normal group”. Median effective dose (ED50) was determined by plotting the inhibition rate of incremental AUC0–2 h (iAUC0–2 h; the AUC above baseline) versus corresponding inhibitor dosage."}, "[1]": {"molecular_target": "human small intestinal maltase", "experiment": "Human intestinal α-glucosidase (maltase) inhibition, small intestinal microsome", "format": "biochemical", "details": "substrate maltose, pH 6.0, 37 °C, 30 min", "description": "The experiment was performed according to the method as described in our previous report. A human small intestinal microsome (batch MIC318017, purchased from BIOPREDIC International, Rennes, France) in 0.1 M maleate buffer (pH 6.0) was used to determine the activity of maltase, a small intestinal α-glucosidase. A test sample was dissolved in dimethyl sulfoxide (DMSO) and the resulting solution was diluted with 0.1 M maleate buffer to prepare the test sample solution (concentration of DMSO: 10%). A substrate solution in the maleate buffer (maltose: 74 mM, 50 μL), the test sample solution (25 μL), and the enzyme solution (25 μL) were mixed at 37 °C for 30 min and then immediately heated in boiling water for 2 min to stop the reaction. The glucose concentrations were determined using the glucose-oxidase method. The final concentration of DMSO in the test solution was 2.5% and no influence of DMSO on the inhibitory activity was detected. The intestinal α-glucosidase inhibitors (acarbose, voglibose, and miglitol) were used as reference compounds."}, "[2]": {"experiment": "Stability in artificial gastric juice", "format": "in vitro ADME", "details": "artificial gastric juice pH 1.2 with pepsin, 37 °C, SCE 1.0 mg/mL", "description": "A solution of SCE (1.0 mg/mL) in artificial gastric juice (components: 0.2% (w/v) NaCl and 0.32% (w/v) pepsin from porcine, pH adjusted to 1.2 with HCl) was incubated at 37 °C for 1.0 or 3.0 h. Each reaction mixture was neutralized with 1 M NaOH and then filtered by ultrafiltration using Amicon Ultra (MWCO 3000 Da, Millipore, MA, USA). The sulfonium contents (1–4) of each filtrate were measured by LCMS as previously described."}, "[3]": {"experiment": "In situ intestinal absorption, rat ligated intestinal loop model", "format": "in vivo", "details": "rat ligated jejunal loop", "description": "Five-week-old male SD rats (fasting period, 18 h) were anesthetized with thiobutabarbital (80 mg/kg, i.p.), and then ligated jejunal loops (ca. 20 cm) were prepared. The aqueous SCE solution (300 mg/2 mL/body) was injected and indwelled into the loop for 0.5 or 2.0 h. The indwelling solution was collected using saline and the sulfonium contents (1–4) were measured by LCMS as previously described. Miglitol (1 mg/2 mL/body) and D-glucose (10 mg/2 mL/body) were used as reference compounds. The content of miglitol in corresponding indwelling solution was also measured under the following LCMS conditions: column, Inertsil ODS-3 (5 μm, 2.1 × 150 mm; GL Sciences, Tokyo, Japan); column temperature, 40 °C; mobile phase, 5 mM nonafluorovaleric acid-MeOH (95:5, v/v); flow rate, 0.2 mL/min; ionization, ESI-positive mode; SIM, m/z 208; Injection volume, 1 μL; retention time (tR), 7.3 min. Glucose concentration was determined by using the glucose-oxidase method."}},
  "note": "Marks after values point to notes of the source that are not given here.",
  "data": [
    {"compound": "OC[C@@H]1[C@@H](O)[C@H](O)C[S@@+]1C[C@@H](O)[C@@H](O)[C@H](O)[C@H](O)[C@@H](O)CO", "note": "[compound 4, neokotalanol]", "values": [
      {"measurement": "iAUC0-2 h", "setting": "starch-loaded rats; 0.07 mg/kg p.o.", "value": "50.5 ± 7.9", "unit": "mg·h/dL"},
      {"measurement": "Blood Glucose 0 h", "setting": "starch-loaded rats; 0.07 mg/kg p.o.", "value": "66.8 ± 2.9", "unit": "mg/dL"},
      {"measurement": "Blood Glucose 0.5 h", "setting": "starch-loaded rats; 0.07 mg/kg p.o.", "value": "104.5 ± 6.1", "unit": "mg/dL"},
      {"measurement": "Blood Glucose 1.0 h", "setting": "starch-loaded rats; 0.07 mg/kg p.o.", "value": "108.4 ± 4.7", "unit": "mg/dL"},
      {"measurement": "Blood Glucose 2.0 h", "setting": "starch-loaded rats; 0.07 mg/kg p.o.", "value": "67.0 ± 4.9", "unit": "mg/dL"},
      {"measurement": "Blood Glucose 3.0 h", "setting": "starch-loaded rats; 0.07 mg/kg p.o.", "value": "56.0 ± 5.4", "unit": "mg/dL"},
      {"measurement": "iAUC0-2 h", "setting": "starch-loaded rats; 0.20 mg/kg p.o.", "value": "41.8 ± 4.2", "unit": "mg·h/dL"},
      {"measurement": "Blood Glucose 0 h", "setting": "starch-loaded rats; 0.20 mg/kg p.o.", "value": "64.1 ± 2.7", "unit": "mg/dL"},
      {"measurement": "Blood Glucose 0.5 h", "setting": "starch-loaded rats; 0.20 mg/kg p.o.", "value": "99.6 ± 6.0 ^b mg/dL"},
      {"measurement": "Blood Glucose 1.0 h", "setting": "starch-loaded rats; 0.20 mg/kg p.o.", "value": "102.3 ± 3.5", "unit": "mg/dL"},
      {"measurement": "Blood Glucose 2.0 h", "setting": "starch-loaded rats; 0.20 mg/kg p.o.", "value": "65.0 ± 2.6", "unit": "mg/dL"},
      {"measurement": "Blood Glucose 3.0 h", "setting": "starch-loaded rats; 0.20 mg/kg p.o.", "value": "54.6 ± 4.4", "unit": "mg/dL"},
      {"measurement": "iAUC0-2 h", "setting": "starch-loaded rats; 0.68 mg/kg p.o.", "value": "26.3 ± 8.6 ^a mg·h/dL"},
      {"measurement": "Blood Glucose 0 h", "setting": "starch-loaded rats; 0.68 mg/kg p.o.", "value": "64.8 ± 3.9", "unit": "mg/dL"},
      {"measurement": "Blood Glucose 0.5 h", "setting": "starch-loaded rats; 0.68 mg/kg p.o.", "value": "89.9 ± 5.1 ^b mg/dL"},
      {"measurement": "Blood Glucose 1.0 h", "setting": "starch-loaded rats; 0.68 mg/kg p.o.", "value": "88.9 ± 6.0", "unit": "mg/dL"},
      {"measurement": "Blood Glucose 2.0 h", "setting": "starch-loaded rats; 0.68 mg/kg p.o.", "value": "63.4 ± 4.8", "unit": "mg/dL"},
      {"measurement": "Blood Glucose 3.0 h", "setting": "starch-loaded rats; 0.68 mg/kg p.o.", "value": "55.6 ± 2.4", "unit": "mg/dL"},
      {"measurement": "ED50", "setting": "starch-loaded rats; Rattus norvegicus, po, starch-loaded SD rats, p.o., read-out: ED50 (inhibition of iAUC0-2 h)", "value": 0.54, "unit": "mg/kg"},
      {"measurement": "IC50", "setting": "[1]", "value": 3.9, "unit": "µM"},
      {"measurement": "Relative Content 0 h", "setting": "[2]; 0 h", "value": "100.0 ± 3.3 % of 0 h"},
      {"measurement": "Relative Content 1.0 h", "setting": "[2]; 1.0 h", "value": "97.4 ± 3.0 % of 0 h"},
      {"measurement": "Relative Content 3.0 h", "setting": "[2]; 3.0 h", "value": "96.5 ± 4.7 % of 0 h"},
      {"measurement": "Residual rate, Relative Content 0 h", "setting": "[3]; 0 h", "value": "100.0 ± 2.1 % of 0 h"},
      {"measurement": "Residual rate, Relative Content 0.5 h", "setting": "[3]; 0.5 h", "value": "100.0 ± 2.6 % of 0 h"},
      {"measurement": "Residual rate, Relative Content 2.0 h", "setting": "[3]; 2.0 h", "value": "96.6 ± 1.7 % of 0 h"}
    ]}
  ]
}
